The target of assay [1] is T1, IKKε (Homo sapiens, UniProt Q14164).
T1 sequence (Q14164 1-716): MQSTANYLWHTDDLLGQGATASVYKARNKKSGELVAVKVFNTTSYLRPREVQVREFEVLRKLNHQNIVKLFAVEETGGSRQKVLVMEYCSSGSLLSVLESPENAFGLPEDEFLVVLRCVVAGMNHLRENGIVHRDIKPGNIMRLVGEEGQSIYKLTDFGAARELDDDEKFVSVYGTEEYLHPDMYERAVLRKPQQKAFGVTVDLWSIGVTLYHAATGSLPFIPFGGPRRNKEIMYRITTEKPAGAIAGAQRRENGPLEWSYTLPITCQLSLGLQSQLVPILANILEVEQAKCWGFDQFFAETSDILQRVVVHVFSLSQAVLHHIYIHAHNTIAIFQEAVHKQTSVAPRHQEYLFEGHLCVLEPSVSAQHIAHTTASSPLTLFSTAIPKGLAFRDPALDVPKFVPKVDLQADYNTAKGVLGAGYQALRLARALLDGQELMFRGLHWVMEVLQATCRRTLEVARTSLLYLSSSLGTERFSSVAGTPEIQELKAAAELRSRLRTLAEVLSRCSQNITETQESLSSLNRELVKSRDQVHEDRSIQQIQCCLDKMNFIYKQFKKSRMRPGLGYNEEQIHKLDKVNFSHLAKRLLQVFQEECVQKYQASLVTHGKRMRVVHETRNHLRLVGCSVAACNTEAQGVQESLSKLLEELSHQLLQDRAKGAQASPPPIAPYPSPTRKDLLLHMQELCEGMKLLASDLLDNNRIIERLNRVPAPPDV
Put plainly: IKKε kinase test (384-well flashplate). It is filed as biochemical. Conditions: 1 nM IKKε, 10 μM ATP, 30° C., 120 min; read-out: IC50 [IKKepsilon]. As for the experimental part: IKKε—Kinase Test (IKKepsilon)
The kinase assay is performed as 384-well flashplate assay.
1 nM IKKε, 800 nM biotinylated IκBα(19-42) peptide (biotin-C6-C6-[…]) and 10 μM ATP (with 0.3 μCi of ^33P-ATP/well) are incubated in a total volume of 50 μl (10 mM MOPS, 10 mM magnesium acetate, 0.1 mM EGTA, 1 mM dithiothreitol, 0.02% of Brij35, 0.1% of BSA, 0.1% of BioStab, pH 7.5) with or without test substance at 30° C. for 120 min. The reaction is stopped using 25 μl of 200 mM EDTA solution, filtered off with suction after 30 min at room temperature, and the wells are washed 3 times with 100 μl of 0.9% NaCl solution. The non-specific proportion of the kinase reaction (blank) is determined using 3 μM EMD 1126352 (BX-795). Radioactivity is measured in the Topcount. IC50 values are calculated using RS1.

Assay [2] concerns the target T2, TANK binding kinase (TBK1) (Homo sapiens, UniProt Q9UHD2).
T2 sequence (Q9UHD2 1-729): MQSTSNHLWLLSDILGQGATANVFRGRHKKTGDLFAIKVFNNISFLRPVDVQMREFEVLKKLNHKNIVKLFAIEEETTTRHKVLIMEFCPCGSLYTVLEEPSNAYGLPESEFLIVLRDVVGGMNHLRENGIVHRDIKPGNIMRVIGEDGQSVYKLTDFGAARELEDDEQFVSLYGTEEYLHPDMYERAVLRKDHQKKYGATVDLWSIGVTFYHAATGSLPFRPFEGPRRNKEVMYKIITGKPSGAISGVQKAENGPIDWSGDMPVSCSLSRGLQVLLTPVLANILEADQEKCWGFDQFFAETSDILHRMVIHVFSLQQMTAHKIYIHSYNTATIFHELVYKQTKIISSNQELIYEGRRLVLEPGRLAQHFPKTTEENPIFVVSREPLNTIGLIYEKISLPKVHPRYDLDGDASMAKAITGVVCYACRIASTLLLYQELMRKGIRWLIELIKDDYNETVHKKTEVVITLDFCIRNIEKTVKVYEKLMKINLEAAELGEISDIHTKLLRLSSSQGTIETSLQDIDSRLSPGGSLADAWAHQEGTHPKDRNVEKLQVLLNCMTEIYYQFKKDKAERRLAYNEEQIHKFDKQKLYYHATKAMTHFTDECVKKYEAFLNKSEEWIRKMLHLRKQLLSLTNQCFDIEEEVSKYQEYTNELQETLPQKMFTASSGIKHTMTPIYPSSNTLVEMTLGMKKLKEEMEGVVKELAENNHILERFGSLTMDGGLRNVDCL
Put plainly: TBK1 kinase test (384-well flashplate). The assay is classed as biochemical. The conditions noted are these: 0.6 nM TBK1, 10 μM ATP, 30° C., 120 min. Here is the method:
The kinase assay is performed as 384-well flashplate assay. 0.6 nM TANK binding kinase (TBK1), 800 nM biotinylated MELK-derived peptide (biotin-Ah-Ah-[…]) and 10 μM ATP (with 0.25 μCi of ^33P-ATP/well) are incubated in a total volume of 50 μl (10 mM MOPS, 10 mM magnesium acetate, 0.1 mM EGTA, 1 mM DTT, 0.02% of Brij35, 0.1% of BSA, pH 7.5) with or without test substance at 30° C. for 120 min. The reaction is stopped using 25 μl of 200 mM EDTA solution, filtered off with suction after 30 min at room temperature, and the wells are washed 3 times with 100 μl of 0.9% NaCl solution. The non-specific proportion of the kinase reaction (blank) is determined using 100 nM staurosporine. Radioactivity is measured in the Topcount. IC50 values are calculated using RS1.

Assay [3] deals with T3, PDK1 (Homo sapiens, UniProt O15530).
T3 construct: His6 (N)
T3 sequence (O15530 51-556 limits assumed): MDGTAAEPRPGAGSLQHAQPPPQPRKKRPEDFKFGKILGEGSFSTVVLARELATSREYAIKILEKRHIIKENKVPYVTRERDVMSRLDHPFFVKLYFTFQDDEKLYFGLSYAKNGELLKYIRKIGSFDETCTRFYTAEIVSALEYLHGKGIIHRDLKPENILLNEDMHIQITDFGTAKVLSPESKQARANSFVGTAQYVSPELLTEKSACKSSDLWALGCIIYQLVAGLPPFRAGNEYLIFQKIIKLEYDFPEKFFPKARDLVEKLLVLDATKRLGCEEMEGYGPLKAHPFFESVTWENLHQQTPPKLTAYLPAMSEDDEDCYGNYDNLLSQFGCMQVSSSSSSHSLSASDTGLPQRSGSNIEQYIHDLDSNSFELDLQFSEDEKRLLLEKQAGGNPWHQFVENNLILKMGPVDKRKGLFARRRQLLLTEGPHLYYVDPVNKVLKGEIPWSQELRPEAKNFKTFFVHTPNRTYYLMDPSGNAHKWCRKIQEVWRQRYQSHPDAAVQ
In words: Test for the inhibition of PDK1 (384-well flashplate, 33P-ATP). Conditions: His6-PDK1 3.4 nM, 4 μM ATP, 30° C., 60 min. It is filed as biochemical. As for the experimental part: 4.0 Test for the Inhibition of PDK1
The experimental batches are carried out in a flashplate system with 384 wells/microtitration plate.
In each case, the PDK1 sample His6-PDK1(1-50)(3.4 nM), the PDK1 substrate biotin-bA-bA-[…] (400 nM), 4 μM ATP (with 0.2 μCi of ^33P-ATP/well) and the test substance in 50 μl of conventional experimental solution per well are incubated at 30° C. for 60 min. The test substances are employed in corresponding concentrations (if desired in a dilution series). The control is carried out without test substance. The reaction is stopped using standard methods and washed. The activity of the kinase is measured via the incorporated radioactivity in top count. In order to determine the non-specific kinase reaction (blank value), the experimental batches are carried out in the presence of 100 nM staurosporin.
The radioactivity (decompositions per minute) of the blank value (no use of test substance in the presence of staurosporin) is subtracted from all other radioactivity values. The controls (kinase activity without test substance) are set equal to 100 percent and all other radioactivity values (after subtracting the blank value) are expressed set in relation thereto (for example in % of the control).
IC50 values (50% inhibition) are determined with the aid of statistics programmes, such as, for example, RS1.

In assay [4] the test system is PDK1 kinase activity (P-T308-PKB) in PC3 cells. In words: Cellular testing of PDK1 kinase inhibitors (Luminex assay, P-T308-PKB in PC3 cells). Conditions: Homo sapiens, PC-3, 0.5 h, serum-free, 30 min with test substance. It is filed as cell-based. As for the experimental part: Description of the Method for Cellular Testing of PDK1 Kinase Inhibitors
The cellular assay for determination of the PDK1 kinase activity is performed as Luminex assay in the 96-well format. PC3 cells are sown at 20,000 cells per well in 100 μl of medium (45% of […]/45% of Ham's F12/10% of FCS) and incubated under serum-free conditions on the following day for 30 min with serial dilution of the test substance (7 concentrations). The cells are subsequently lysed using 90 μl of lysis buffer (20 mM Tris/HCl pH 8.0, 150 mM NaCl, 1% of NP40, 10% of glycerol, 1% of phosphatase inhibitor I, 1% of phosphatase inhibitor II, 0.1% of protease inhibitor Cocktail III, 0.01% of benzonase) per well, and the lysates are separated off from insoluble cell constituents by means of centrifugation through a 96-well filter plate (0.65 μm). The lysates are incubated overnight at 4° C. with shaking with Luminex beads to which an anti-total PKB antibody has been coupled. Detection is carried out on the following day by addition of a P-T308-PKB antibody and a species-specific PE-labelled secondary antibody. The determination of P-T308-PKB is carried out by measurement in the Luminex100 instrument by determination of 100 events per cavity in a measurement time of 60 sec. As pharmacological blank, the signals obtained from cells which have been treated with 10 μM staurosporin are subtracted from all other batches. The control value used for maximum phosphorylation of PKB on T308 are the signals from cells which have been treated only with the solvent (0.3% of DMSO). The values of the batches treated with test substance are calculated from this as percent of control, and IC50 values are determined by means of RS1.

By IC50 is commonly meant the midpoint of a concentration-inhibition curve.

As to `Cn1cc(-c2cnc3[nH]cc(-c4cn(CCc5ccccc5)nn4)c3c2)cn1` [Compound A16, 5-(1-Methyl-1H-pyrazol-4-yl)-3-(1-phenethyl-1H-1,2,3-triazol-4-yl)-1H-pyrrolo[2,3-b]-pyridine], the IC50 in assay [1], in assay [2] and in assay [3] was 0.0005 to 1 µM each time.

As to `Cn1cc(-c2cnc3[nH]cc(-c4cn(CCN5CCOCC5)nn4)c3c2)cn1` [Compound A18, 5-(1-Methyl-1H-pyrazol-4-yl)-3-[1-(2-morpholin-4-ylethyl)-1H-1,2,3-triazol-4-yl]-1H-pyrrolo[2,3-b]pyridine], the IC50 in assay [1], in assay [2] and in assay [3] was 0.0005 to 1 µM in each case.

With `Cn1cc(-c2cnc3[nH]cc(-c4cn(CC(O)c5ccccc5)nn4)c3c2)cn1` (centres unmarked) [Compound A31, 2-{4-[5-(1-Methyl-1H-pyrazol-4-yl)-1H-pyrrolo[2,3-b]pyridin-3-yl]-1,2,3-triazol-1-yl}-1-phenylethanol], the IC50 in assay [4] fell in the range of 1 to 10 µM; in assay [3] it was 0.0005 to 1 µM.

These data come from patent US8541584B2, “3-(1,2,3-triazol-4-yl) pyrrolo [2,3-b] pyridine derivatives” (Merck Patent GmbH, priority 2009, dated 2013).
